Assay results as given in ChEMBL document CHEMBL1201862, “PubChem BioAssay data set” (2004).
Values belong to the compound of their own block, whether it stands above or below them. Activity calls are given as the source filed them.

Key:
[1] = biological target: T1, Tyrosine-protein phosphatase non-receptor type 7 (Homo sapiens, UniProt P35236); test: SAR analysis of chemical inhibitors of HePTP using a Fluorescent assay - Set 2. [Related pubchem assays (depositor defined):AID1059, AID1077, AID1661, AID2085, AID521]; format: functional
T1 sequence (P35236 whole entry): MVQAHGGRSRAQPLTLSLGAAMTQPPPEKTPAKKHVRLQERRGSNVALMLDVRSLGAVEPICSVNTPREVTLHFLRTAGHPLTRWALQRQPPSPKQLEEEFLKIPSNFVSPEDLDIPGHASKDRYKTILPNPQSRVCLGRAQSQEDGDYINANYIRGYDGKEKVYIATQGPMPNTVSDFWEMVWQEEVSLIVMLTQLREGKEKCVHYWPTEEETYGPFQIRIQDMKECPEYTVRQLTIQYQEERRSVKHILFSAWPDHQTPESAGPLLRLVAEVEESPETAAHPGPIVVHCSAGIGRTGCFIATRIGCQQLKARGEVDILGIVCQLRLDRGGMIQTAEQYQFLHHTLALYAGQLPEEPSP

[2] = biological target: Dual specificity protein phosphatase 3 (Homo sapiens, UniProt P51452); test: SAR VHR1 Fluorescent Assay for In Vitro dose response studies Set 2. [Related pubchem assays (depositor defined):AID1654, AID1661, AID1878]; format: functional
Coagulation factor XII = Coagulation factor XII (Homo sapiens, UniProt P00748); format: functional;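 also: activated factor XIIa alpha cleaving a fluorogenic AMC peptide substrate; inhibitor potency from loss of enzyme activity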
Phosphomannomutase 2 = Phosphomannomutase 2 (Homo sapiens, UniProt O15305); test: Counter screen SAR assay for PMM2 inhibitors via a fluorescence intensity assay. [Related pubchem assays (depositor defined):AID1545, AID1574]
[3] = biological target: T2, Mannose-6-phosphate isomerase (Homo sapiens, UniProt P34949); test: PMI enzyme inhibitors, confirmation, biochemical, fluorescence intensity (AID 1535)
T2 sequence (P34949 whole entry): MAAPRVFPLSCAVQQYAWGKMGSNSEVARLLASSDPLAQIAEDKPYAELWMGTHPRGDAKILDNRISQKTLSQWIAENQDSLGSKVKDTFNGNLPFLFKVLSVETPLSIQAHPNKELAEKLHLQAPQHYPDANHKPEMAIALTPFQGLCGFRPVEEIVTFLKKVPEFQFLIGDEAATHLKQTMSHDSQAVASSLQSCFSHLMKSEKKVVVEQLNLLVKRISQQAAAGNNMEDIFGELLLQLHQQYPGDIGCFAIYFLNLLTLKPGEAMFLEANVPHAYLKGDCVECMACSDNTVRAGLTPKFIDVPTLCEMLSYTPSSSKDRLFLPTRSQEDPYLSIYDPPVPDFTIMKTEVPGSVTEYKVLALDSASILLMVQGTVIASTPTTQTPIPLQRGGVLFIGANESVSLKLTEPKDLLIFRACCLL

[4] = biological target: Phosphoethanolamine/phosphocholine phosphatase (Homo sapiens, UniProt Q8TCT1); test: SAR assay for compounds that inhibit PHOSPHO1. [Related pubchem assays (depositor defined):AID1545, AID1565, AID1574]
[5] = biological target: Sphingosine 1-phosphate receptor 4 (Homo sapiens, UniProt O95977); test: Late-stage fluorescence dose response cell-based assay to identify agonists of the Sphingosine 1-Phosphate Receptor 4 (S1P4): purchased compounds EC50. [Related pubchem assays (depositor defined):AID1509, AID1523, AID1563, AID1686, AID1701, AID1801]; format: functional
Chain of Sphingosine 1-phosphate receptor 4 (O95977 whole entry): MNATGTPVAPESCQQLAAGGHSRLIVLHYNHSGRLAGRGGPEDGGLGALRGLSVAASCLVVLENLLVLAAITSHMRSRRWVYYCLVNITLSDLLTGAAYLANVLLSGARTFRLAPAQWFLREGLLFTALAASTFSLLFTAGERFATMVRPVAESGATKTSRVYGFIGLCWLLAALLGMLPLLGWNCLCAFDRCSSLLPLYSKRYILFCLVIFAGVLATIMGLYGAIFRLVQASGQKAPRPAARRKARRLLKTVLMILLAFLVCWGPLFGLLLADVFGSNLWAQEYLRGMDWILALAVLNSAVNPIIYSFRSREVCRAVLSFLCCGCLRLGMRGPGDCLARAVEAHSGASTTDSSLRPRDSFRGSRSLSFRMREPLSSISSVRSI

Chain of Phosphomannomutase 2 (O15305 whole entry): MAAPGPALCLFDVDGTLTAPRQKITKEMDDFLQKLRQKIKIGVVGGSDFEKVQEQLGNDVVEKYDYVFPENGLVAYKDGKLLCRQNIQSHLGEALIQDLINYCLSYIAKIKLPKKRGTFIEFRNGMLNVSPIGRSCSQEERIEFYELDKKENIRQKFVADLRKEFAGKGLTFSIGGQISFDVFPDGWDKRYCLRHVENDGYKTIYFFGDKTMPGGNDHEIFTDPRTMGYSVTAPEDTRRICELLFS
Chain of Coagulation factor XII (P00748 20-372 limits assumed): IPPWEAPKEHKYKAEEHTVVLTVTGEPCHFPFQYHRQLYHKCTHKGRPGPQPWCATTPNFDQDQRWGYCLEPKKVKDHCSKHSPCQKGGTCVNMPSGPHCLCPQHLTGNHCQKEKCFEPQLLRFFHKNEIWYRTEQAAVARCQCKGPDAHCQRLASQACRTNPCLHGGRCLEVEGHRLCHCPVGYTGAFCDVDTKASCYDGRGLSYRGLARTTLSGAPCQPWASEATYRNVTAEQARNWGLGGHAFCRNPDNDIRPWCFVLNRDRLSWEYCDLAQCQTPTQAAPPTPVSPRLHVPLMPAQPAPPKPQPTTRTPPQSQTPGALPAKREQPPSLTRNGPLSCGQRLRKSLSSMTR
Chain of Coagulation factor XII (P00748 373-615 limits assumed): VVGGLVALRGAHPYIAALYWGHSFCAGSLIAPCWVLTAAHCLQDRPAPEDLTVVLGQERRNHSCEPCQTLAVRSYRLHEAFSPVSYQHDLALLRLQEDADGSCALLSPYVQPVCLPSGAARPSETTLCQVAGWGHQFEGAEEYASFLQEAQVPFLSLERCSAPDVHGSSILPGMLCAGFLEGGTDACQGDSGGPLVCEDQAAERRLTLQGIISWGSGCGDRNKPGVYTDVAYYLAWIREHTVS
Chain of Phosphoethanolamine/phosphocholine phosphatase (Q8TCT1 whole entry): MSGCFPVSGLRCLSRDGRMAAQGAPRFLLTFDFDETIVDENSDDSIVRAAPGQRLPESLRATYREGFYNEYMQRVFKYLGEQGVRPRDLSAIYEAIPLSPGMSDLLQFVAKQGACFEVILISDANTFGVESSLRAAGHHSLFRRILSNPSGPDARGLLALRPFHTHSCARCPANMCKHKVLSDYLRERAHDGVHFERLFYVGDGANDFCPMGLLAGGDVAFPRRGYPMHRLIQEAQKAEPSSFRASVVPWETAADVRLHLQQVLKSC
Chain of Dual specificity protein phosphatase 3 (P51452 whole entry): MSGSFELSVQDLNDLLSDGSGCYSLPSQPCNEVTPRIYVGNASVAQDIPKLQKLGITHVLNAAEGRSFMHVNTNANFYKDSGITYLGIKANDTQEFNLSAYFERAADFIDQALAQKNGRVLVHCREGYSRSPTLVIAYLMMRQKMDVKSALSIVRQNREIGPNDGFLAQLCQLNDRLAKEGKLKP

Structure (SMILES): Oc1ccc(C(=S)NCc2ccc(F)c(C(F)(F)F)c2)cc1
IC50 [1]: 30.9 µM (active)
IC50 [2]: 40.9 µM (active)

IC50 (Coagulation factor XII): > 50 µM (inactive)
Structure (SMILES): COc1cc(-c2nnco2)cc(OC)c1OC

IC50 (Phosphomannomutase 2): > 100 µM (inactive)
IC50 [3]: > 50 µM (inactive)
IC50 [4]: 0.252 µM (active)
Structure (SMILES): O=c1c2ccc([N+](=O)[O-])cc2sn1-c1cc(C(F)(F)F)ccc1Cl

EC50 [5]: > 50 µM (inactive)
Structure (SMILES): Cc1ccc(OCC(=O)Nc2ccc(Cl)cc2)c([N+](=O)[O-])n1
